The record followed here is patent US10669283B2, “Compound and pharmacologically acceptable salt thereof” (MEIJI SEIKA PHARMA CO., LTD., priority 2016, dated 2020).

Where two headings read alike, the source gives them in different places. Where only a bound is given, the exact number is not on record here.

In one data set the test system is PDE4. Description: PDE4 inhibition, scintillation proximity assay (SPA). Format: biochemical. A digest of the protocol:
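Scintillation proximity read-out: [2,8-3H]-cAMP hydrolysis by PDE4 ran 120 min at room temperature in Tris-HCl pH 7.4 buffer with 8.3 mM MgCl2, 1.7 mM EGTA and 3 mg/mL BSA. Bead-bound product (YSi-SPA with ZnSO4, 15 min) counted; blank lacks enzyme, control has DMSO only.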
(In general: SPA uses beads or plates that emit light when radiolabelled molecules are held near them.)

The nature of data set [1]: Hepatic metabolic stability (rat liver microsome method). Format: in vitro ADME. As to conditions: rat liver microsomes 0.5 mg/mL, test substance 1 μM, NADPH 1 mM, 37° C., 30 minutes. As for the experimental part:
Metabolic stability in rat liver microsomes was evaluated by the following method. In 100 mM of potassium phosphate buffer solution (pH 7.4), liver microsomes (concentration at reaction: 0.5 mg/mL) and the test substance (concentration at reaction: 1 μM) were preincubated at 37° C. Five minutes later, 100 mM of potassium phosphate buffer (pH 7.4) solution of NADPH (concentration at reaction: 1 mM) was mixed thereto to start the reaction. After a predetermined time passed, acetonitrile was mixed to the reaction mixture to stop the reaction. Here, the reaction time was 0 and 30 minutes, and drug concentration measurement was performed for each time period using LC-MS. The % remaining value of the test compound was calculated from the value for 0 minutes and the value for 30 minutes, using the calculation formula below: % Remaining=(Value for 30 Minutes/Value for 0 Minutes)×100
The results of measuring the rat liver microsome metabolic Stability (% remaining for 30-minute reaction) for the test compound by the above method were evaluated in accordance with the following evaluated basis; A: a % remaining rate of 75% or more, B: 60% or more and less than 75%, C: 45% or more and less than 60%, and D: less than 45%.
On the technique in general: Microsomes from liver hold many membrane-bound enzymes, among them those of drug oxidation.

Setting [2] is: scintillation proximity assay, class symbols, read-out: PDE4 Inhibitory Activity.
Where [3] appears, read: scintillation proximity assay (SPA), evaluated as classes A, B, C, read-out: PDE4 Inhibitory Activity (concentration for the inhibition rate of 50%).

Consider `O=C(NCCO)C(F)(F)Oc1ccc(-c2nccs2)c2oc(N3CC4CC(C3)N4)nc12` [Example 411, 2-((2-(3,6-diazabicyclo [3.1.1]heptan-3-yl)-7-(thiazol-2-yl)benzo[d]oxazol-4-yl)oxy)-2,2-difluoro-N-(2-hydroxy-ethyl) acetamide], for which the IC50 with PDE4 (setting [2]) was below 100 nM. Besides, the “Residual ratio (% remaining for 30-minute reaction)” value in data set [1] was “A (a % remaining rate of 75% or more)”.

Regarding `NC(=O)C(F)(F)Oc1ccc(-c2nccs2)c2oc(N3CC4CC(C3)N4)nc12` [Example 410, 2-((2-(3,6-diazabicyclo [3.1.1]heptan-3-yl)-7-(thiazol-2-yl)benzo[d]oxazol-4-yl)oxy)-2,2-difluoro-acetamide], the IC50 with PDE4 (setting [2]) was below 100 nM. In addition, the “Residual ratio (% remaining for 30-minute reaction)” value in data set [1] is “A (a % remaining rate of 75% or more)”.

As for `COCCNS(=O)(=O)c1ccc(-c2nccs2)c2oc(N3CC4CC(C3)N4)nc12` [Example 387, 2-(3,6-diazabicyclo[3.1.1]heptan-3-yl)-N-(2-methoxyethyl)-7-(thiazol-2-yl)benzo [d]oxazole-4-sulfonamide], the IC50 in the data set with PDE4 (setting [2]) is below 100 nM. Also, the “Residual ratio (% remaining for 30-minute reaction)” value in data set [1] is reported as “A (a % remaining rate of 75% or more)”.

Consider `CS(=O)(=O)c1ccc(-c2nccs2)c2oc(N3CC4CC(C3)N4)nc12` [Example 347, 2-(3,6-diazabicyclo[3.1.1]heptan-3-yl)-4-(methylsulfonyl)-7-(thiazol-2-yl)benzo [d]oxazole], for which the IC50 in the data set with PDE4 (setting [2]) was below 100 nM. In addition, in data set [1], the “Residual ratio (% remaining for 30-minute reaction)” value is on record as “A (a % remaining rate of 75% or more)”.

Regarding `COCC(F)(F)Oc1ccc(-c2nccs2)c2oc(N3CC4CC(C3)N4)nc12` [Example 392, 2-(3,6-diazabicyclo[3.1.1]heptan-3-yl)-4-(1,1-difluoro-2-methoxyethoxy)-7-(thiazol-2-yl) benzo[d]oxazole], the IC50 with PDE4 (setting [2]) was below 100 nM. In data set [1], the “Residual ratio (% remaining for 30-minute reaction)” value is “B (60% or more and less than 75%)”.

In the case of `CC(C)(O)C(F)(F)Oc1c(Cl)cc(-c2nccs2)c2oc(N3CC4CC(C3)N4)nc12` [Example 400, 1-((2-(3,6-diazabicyclo [3.1.1]heptan-3-yl)-5-chloro-7-(thiazol-2-yl)benzo[d]oxazol-4-yl)oxy)-1,1-difluoro-2-methylpropan-2-ol], in the data set with PDE4 (setting [2]), the IC50 was below 100 nM. Further, the “Residual ratio (% remaining for 30-minute reaction)” value in data set [1] was “B (60% or more and less than 75%)”.

Turning to `c1csc(-c2ccc(OC3CCOCC3)c3nc(N4CC5CCC(C4)N5)oc23)n1` [Example 254, 2-(3,8-Diazabicyclo[3.2.1]octan-3-yl)-4-((tetrahydro-2H-pyran-4-yl)oxy)-7-(thiazol-2-yl)benzo[d]oxazole], the IC50 with PDE4 (setting [3]) is below 100 nM. Further, the “Residual ratio (% remaining for 30-minute reaction)” value in data set [1] is “A (a % remaining rate of 75% or more)”.

For the compound `CC(C)(O)C(F)(F)Oc1ccc(-c2ccc(F)cn2)c2oc(N3CC4CC(C3)N4)nc12` [Example 329, 1-((2-(3,6-Diazabicyclo[3.1.1]heptan-3-yl)-7-(5-fluoropyridin-2-yl)benzo[d]oxazol-4-yl)oxy)-1,1-difluoro-2-methylpropan-2-ol], the IC50 in the data set on PDE4 (setting [2]) was below 100 nM. Also, the “Residual ratio (% remaining for 30-minute reaction)” value in data set [1] is on record as “A (a % remaining rate of 75% or more)”.

In the case of `c1ccc(Oc2ccc(-c3nccs3)c3oc(N4CC5CC(C4)N5)nc23)nc1` [Example 337, 2-(3,6-diazabicyclo [3.1.1]heptan-3-yl)-4-(pyridin-2-yloxy)-7-(thiazol-2-yl)benzo[d] oxazole], the IC50 with PDE4 (setting [2]) was below 100 nM. In addition, in data set [1], the “Residual ratio (% remaining for 30-minute reaction)” value was “B (60% or more and less than 75%)”.

On to `c1cc(-c2nccs2)c2oc(N3CC4CC(C3)N4)nc2c1` [Example 382, 2-(3,6-diaza-bicyclo[3.1.1]heptan-3-yl)-7-(thiazol-2-yl) benzo[d]oxazole], for which the IC50 in the data set on PDE4 (setting [2]) was below 100 nM. Besides, the “Residual ratio (% remaining for 30-minute reaction)” value in data set [1] was “B (60% or more and less than 75%)”.

Turning to `OCC(F)(F)Oc1ccc(-c2nccs2)c2oc(N3CC4CC(C3)N4O)nc12` [Example 374, 3-(4-(1,1-difluoro-2-hydroxyethoxy)-7-(thiazol-2-yl)benzo [d]oxazol-2-yl)-3,6-diazabicyclo[3.1.1] heptan-6-ol], the IC50 in the data set on PDE4 (setting [2]) was below 100 nM. Further, the “Residual ratio (% remaining for 30-minute reaction)” value in data set [1] was “B (60% or more and less than 75%)”.

As to `O=C(NC1CC1)c1ccc(-c2nccs2)c2oc(N3CC4CC(C3)N4)nc12` [Example 357, 2-(3,6-diazabicyclo [3.1.1]heptan-3-yl)-N-cyclopropyl-7-(thiazol-2-yl) benzo[d]oxazole-4-carboxamide], in the data set on PDE4 (setting [2]), the IC50 is below 100 nM. In addition, the “Residual ratio (% remaining for 30-minute reaction)” value in data set [1] was “A (a % remaining rate of 75% or more)”.

With `O=S(=O)(c1ccc(-c2nccs2)c2oc(N3CC4CC(C3)N4)nc12)C(F)(F)F` [Example 334, 2-(3,6-diazabicyclo [3.1.1]heptan-3-yl)-7-(thiazol-2-yl)-4-((trifluoromethyl)sulfonyl) benzo[d]oxazole], the IC50 in the data set with PDE4 (setting [2]) is below 100 nM. Also, the “Residual ratio (% remaining for 30-minute reaction)” value in data set [1] is “B (60% or more and less than 75%)”.

For `O=C(NCCO)c1ccc(-c2nccs2)c2oc(N3CC4CC(C3)N4)nc12` [Example 355, 2-(3,6-diazabicyclo [3.1.1]heptan-3-yl)-N-(2-hydroxyethyl)-7-(thiazol-2-yl) benzo[d] oxazole-4-carboxamide], the IC50 in the data set with PDE4 (setting [2]) was below 100 nM. Further, the “Residual ratio (% remaining for 30-minute reaction)” value in data set [1] is recorded as “A (a % remaining rate of 75% or more)”.

In the case of `CC(O)(CO)C(F)(F)Oc1ccc(-c2nccs2)c2oc(N3CC4CC(C3)N4)nc12` (single isomer, unassigned) [Example 364, 3-((2-(3,6-diazabicyclo [3.1.1]heptan-3-yl)-7-(thiazol-2-yl)benzo[d]oxazol-4-yl)oxy)-3,3-difluoro-2-methylpropane-1,2-diol], the IC50 in the data set with PDE4 (setting [2]) is below 100 nM. The “Residual ratio (% remaining for 30-minute reaction)” value in data set [1] was “A (a % remaining rate of 75% or more)”.

Take `O=C(c1ccc(-c2nccs2)c2oc(N3CC4CC(C3)N4)nc12)N1CCOCC1` [Example 359, (2-(3,6-diazabicyclo [3.1.1]heptan-3-yl)-7-(thiazol-2-yl)benzo[d]oxazol-4-yl) (morpholino) methanone]: the IC50 in the data set with PDE4 (setting [2]) lay within 100 to 1000 nM. Moreover, the “Residual ratio (% remaining for 30-minute reaction)” value in data set [1] is “A (a % remaining rate of 75% or more)”.

Turning to `CC(C)(O)C(F)(F)Oc1ccc(-c2ccc(F)cn2)c2oc(N3CC4CCC(C3)N4)nc12` [Example 332, 1-((2-(3,8-diazabicyclo [3.2.1]octan-3-yl)-7-(5-fluoropyridin-2-yl)benzo[d]oxazol-4-yl)oxy)-1,1-difluoro-2-methylpropan-2-ol], the IC50 with PDE4 (setting [2]) was below 100 nM. Moreover, the “Residual ratio (% remaining for 30-minute reaction)” value in data set [1] is listed as “A (a % remaining rate of 75% or more)”.

Consider `OCC(F)(F)Oc1ccc(-c2ccccn2)c2oc(N3CC4CC(C3)N4)nc12` [Example 315, 2-((2-(3,6-Diazabicyclo[3.1.1]heptan-3-yl)-7-(pyridin-2-yl)benzo[d]oxazol-4-yl)oxy)-2,2-difluoroethan-1-ol], for which the IC50 with PDE4 (setting [3]) is below 100 nM. Also, the “Residual ratio (% remaining for 30-minute reaction)” value in data set [1] is “A (a % remaining rate of 75% or more)”.

With `FC(F)(F)c1ccc(Oc2ccc(-c3nccs3)c3oc(N4CC5CC(C4)N5)nc23)nc1` [Example 336, 2-(3,6-diazabicyclo [3.1.1]heptan-3-yl)-7-(thiazol-2-yl)-4-((5-(trifluoromethyl)pyridin-2-yl)oxy)benzo[d]oxazole], the IC50 in the data set on PDE4 (setting [2]) was below 100 nM. Besides, in data set [1], the “Residual ratio (% remaining for 30-minute reaction)” value is “B (60% or more and less than 75%)”.

For `Cn1ccc(-c2ccc(OC(F)(F)C(C)(C)O)c3nc(N4CC5CC(C4)N5)oc23)n1` [Example 394, 1-((2-(3,6-diazabicyclo[3.1.1]heptan-3-yl)-7-(1-methyl-1H-pyrazol-3-yl)benzo[d]oxazol-4-yl)oxy)-1,1-difluoro-2-methylpropan-2-ol], in the data set with PDE4 (setting [2]), the IC50 was 100 to 1000 nM. Also, the “Residual ratio (% remaining for 30-minute reaction)” value in data set [1] was “A (a % remaining rate of 75% or more)”.

Turning to `Cc1csc(-c2ccc(OC(F)(F)C(C)(C)O)c3nc(N4CC5CC(C4)N5)oc23)n1` [Example 306, 1-((2-(3,6-Diazabicyclo[3.1.1]heptan-3-yl)-7-(4-methylthiazol-2-yl)benzo[d]oxazol-4-yl)oxy)-1,1-difluoro-2-methylpropan-2-ol], the IC50 in the data set on PDE4 (setting [3]) was in the range of 100 to 1000 nM. Besides, in data set [1], the “Residual ratio (% remaining for 30-minute reaction)” value is reported as “A (a % remaining rate of 75% or more)”.

Turning to `N#Cc1ccc(-c2nccs2)c2oc(N3CC4CC(C3)N4)nc12` [Example 335, 2-(3,6-diazabicyclo [3.1.1]heptan-3-yl)-7-(thiazol-2-yl)benzo [d]oxazole-4-carbonitrile], the IC50 in the data set with PDE4 (setting [2]) was below 100 nM. Moreover, the “Residual ratio (% remaining for 30-minute reaction)” value in data set [1] is listed as “A (a % remaining rate of 75% or more)”.

In the case of `Cn1ccc(-c2ccc(OC(F)(F)C(C)(C)O)c3nc(N4CC5CCC(C4)N5)oc23)n1` [Example 328, 1-((2-(3,8-Diazabicyclo[3.2.1]octan-3-yl)-7-(1-methyl-1H-pyrazol-3-yl)benzo[d]oxazol-4-yl)oxy)-1,1-difluoro-2-methylpropan-2-ol], the IC50 in the data set on PDE4 (setting [2]) was below 100 nM. Moreover, the “Residual ratio (% remaining for 30-minute reaction)” value in data set [1] was “A (a % remaining rate of 75% or more)”.
